Here are results for 59 molecules from US4902700A, “Thiazole derivative and leukotriene antagonist containing the same as the effective ingredients” (Mitsubishi Kasei Corporation, priority 1985, dated 1990).

Structures can show the parent of a compound that is named as a salt. Bounds are passed on as bounds.

For one data set, the system named is SRS. Briefly: SRS antagonistic action in vitro (isolated guinea pig ileum shrinkage). The conditions noted are these: conc. attenuating control shrinkage to 50% (IC50), Tables 2-1 to 2-4, head prints no unit, read-out: Anti-SRS action [minimum effective conc.]. The method, then:
The ileum end portion of a male Hartley-strain guinea pig weighing 200-450 g was extirpated and after washing its lumen, the ileum was mounted within 5 ml of a tissue bath containing a Tylord solution comprising the following components. […] For removing shrinkage with hystamine and acetylcholine, 10^-7 g/ml of mepylamin and 5×10^-8 g/ml of atropin were added to the above buffer. […] The ileum was loaded passively with 0.5 g of tension and the ileum shrinkage reaction to SRS extracted from guinea pig lung was obtained. The persistent shrinkage height by one unit of SRS (corresponding to 5 ng of hystamine) was used as control.
For `Cc1csc(/C=C/c2cccc(NC(=O)/C=C\C(=O)O)c2)n1` [compound 54], the IC50 worked out at 5e-07 M.

Regarding `CCCc1nc(/C=C/c2cccc(NC(=O)/C=C\C(=O)O)c2)sc1CC` [compound 332], the IC50 stood at 1e-07 M.

Take `O=C(O)C(=O)Nc1cccc(/C=C/c2nc3ccccc3s2)c1` [compound 168]: the IC50 stood at 1e-07 M.

For the molecule `CC(C)c1csc(/C=C/c2cccc(NC(=O)CC(C(=O)O)c3ccccc3)c2)n1` (stereo not shown) [compound 307], the IC50 amounted to 2e-09 M.

Take `Cc1cc(C(=O)O)c(C(=O)Nc2cccc(/C=C/c3nc(-c4ccccc4)cs3)c2)cc1C` [compound 253]: the IC50 stood at 5e-08 M.

Regarding `O=C(O)/C=C/C(=O)Nc1cccc(/C=C/c2nc3ccccc3s2)c1` [compound 167], the IC50 worked out at 2e-07 M.

Consider `O=C(O)[C@H]1CCCC[C@H]1C(=O)Nc1cccc(/C=C/c2nc3ccccc3s2)c1` (relative stereo) [compound 3], for which the IC50 stood at 5e-08 M.

Turning to `CCCCCCCc1csc(/C=C/c2cccc(NC(=O)c3ccccc3C(=O)O)c2)n1` [compound 291], the IC50 worked out at 1e-07 M.

On to `CC(C)(C)c1csc(/C=C/c2cccc(NC(=O)CCCC(=O)O)c2)n1` [compound 298], for which the IC50 was 5e-05 M.

As for `CCc1nc(/C=C/c2cccc(NC(=O)c3cc(C)c(C)cc3C(=O)O)c2)sc1C` [compound 328], the IC50 is 5e-09 M.

For `CCCCC(CC(=O)Nc1cccc(/C=C/c2nc3ccccc3s2)c1)C(=O)O` (stereo not shown) [compound 227], the IC50 amounted to 5e-08 M.

On to `CCCCCCc1csc(/C=C/c2cccc(NC(=O)c3ccccc3C(=O)O)c2)n1` [compound 287], for which the IC50 stood at 2e-05 M.

With `COC(=O)CCC(=O)Nc1cccc(/C=C/c2nc3ccccc3s2)c1` [compound 192], the IC50 amounted to 5e-07 M.

Regarding `Cc1ccc2sc(/C=C/c3cccc(NC(=O)c4ccccc4C(=O)O)c3)nc2c1` [compound 231], the IC50 was 5e-09 M.

Take `O=C(O)c1ccccc1C(=O)Nc1cccc(/C=C/c2nc3ccccc3s2)c1` [compound 2]: the IC50 came to 5e-09 M.

On to `O=C(O)/C=C\C(=O)Nc1cccc(/C=C/c2nc(-c3ccccc3)cs2)c1` [compound 34], for which the IC50 was 2e-08 M.

Staying with this data set, now noted: conc. attenuating control shrinkage to 50% (IC50), Tables 2-6 to 2-11 and Table 3, read-out: Anti-SRS action [minimum effective conc. (M)].
Take `O=C(O)CCCCCc1cccc(/C=C/c2nc3ccccc3s2)c1` [compound 411]: the IC50 came to 1e-05 M.

For `O=C(CCCO)Nc1cccc(/C=C/c2nc3ccccc3s2)c1` [compound 422, 2-[trans-3-(4-hydroxybutanoylamino)styryl]benzothiazole], the IC50 worked out at 1e-06 M.

Take `O=C(CC1(C(=O)O)CCCCC1)Nc1cccc(CCc2nc3ccccc3s2)c1` [compound 358]: the IC50 amounted to 1e-08 M.

`OCCCCOc1cccc(/C=C/c2nc3ccccc3s2)c1` [compound 423, 2-[trans-3-(4-hydroxybutoxy)styryl]benzothiazole]: the IC50 came to 1e-05 M.

On to `CC(C)CCOC(=O)/C=C\C(=O)Nc1cccc(/C=C/c2nc3ccccc3s2)c1` [compound 189, 2-[trans-3-(cis-3-isoamyloxycarbonylpropenamide)styryl]benzothiazole], for which the IC50 turned out to be 1e-06 M.

As for `O=C(O)CCNc1cccc(/C=C/c2nc3ccccc3s2)c1` [compound 426, 2-[trans-3-(2-carboxyethylamino)styryl]benzothiazole sodium salt], the IC50 was 2e-07 M.

For the molecule `O=C(O)/C=C\C(=O)Nc1cccc(/C=C/c2nc3ccccc3s2)c1` [compound 213, 2-[trans-3-(cis-3-carboxypropenamide)styryl]benzothiazole sodium salt], the IC50 amounted to 5e-08 M.

`CCCCc1csc(C=Cc2cccc(NCCCC(=O)O)c2)n1` [compound 389]: the IC50 was determined as 1e-07 M.

In the case of `O=C(O)/C=C\C(=O)Nc1cccc(OCc2nc3ccccc3s2)c1` [compound 368], the IC50 was found to be 1e-07 M.

With `Cc1nc(C=Cc2cccc(NCCCC(=O)O)c2)sc1C` [compound 377], the IC50 stood at 2e-07 M.

Turning to `CCOC(=O)CCCNc1cccc(/C=C/c2nc3ccccc3s2)c1` [compound 199, 2-[trans-3-(3-ethoxycarbonylpropyl)aminostyryl]benzothiazole], the IC50 was determined as 2e-07 M.

Consider `C(=C\c1nc2ccccc2s1)/c1cccc(NCCCc2nnn[nH]2)c1` [compound 424, 2-[trans-3-(3-(5-tetrazolyl)propylamino)styryl]benzothiazole], for which the IC50 was 5e-07 M.

As for `O=C(O)CCCNc1cccc(CCc2nc3ccccc3s2)c1` [compound 376], the IC50 worked out at 5e-07 M.

Turning to `O=C(O)CCCCNc1cccc(/C=C/c2nc3ccccc3s2)c1` [compound 398], the IC50 was 2e-07 M.

In the case of `O=C(O)[C@H]1CCCC[C@H]1C(=O)Nc1cccc(/C=C/c2nc3ccccc3s2)c1` (relative stereo) [compound 414, 2-[trans-3-(cis-2-carboxycyclohexanoyl)aminostyryl]benzothiazole N-methyl-D-glucamine salt], the IC50 is 1e-06 M.

Regarding `O=C(O)/C=C\C(=O)Nc1cccc(NCc2nc3ccccc3s2)c1` [compound 150], the IC50 is 2e-07 M.

On to `O=C(O)/C=C\C(=O)Nc1cccc(COCc2nc3ccccc3s2)c1` [compound 369], for which the IC50 was 1e-05 M.

Turning to `CCc1csc(C=Cc2cccc(NCCCC(=O)O)c2)n1` [compound 387], the IC50 was 1e-08 M.

System in a further data set: not listed separately
Briefly: Acute toxicity test, oral. As to conditions: mouse, in vivo, male ddy mice, 1% tragacanth suspension, 7 days. The method, then:
With 4 to 5 ddy-strain male mice of 6 weeks old as one group, the compound of the present invention was orally administered as a suspension in 1% tragacanth solution, and observation was conducted for 7 days and the number of dead mice was examined to obtain the results shown in Table 5.
`O=C([O-])CCCNc1cccc(/C=C/c2nc3ccccc3s2)c1.[Na+]` registered an LD50 at 168 h of 2000 to 3000 mg/kg.

`Cc1nc(/C=C/c2cccc(NC(=O)[C@H]3CCCC[C@H]3C(=O)O)c2)sc1C` (relative stereo) [compound 315] showed an LD50 at 168 h of 1000 to 2000 mg/kg.

For the molecule `O=C(O)/C=C\C(=O)Nc1cccc(CCc2nc3ccccc3s2)c1` [compound 353], the 50% lethal dose (LD50) at 168 h turned out to be 3310 mg/kg.

On to `O=C(O)[C@@H]1CCCC[C@H]1C(=O)Nc1cccc(/C=C/c2nc3ccccc3s2)c1` (relative stereo) [compound 418], for which the LD50 at 168 h is under 3000 mg/kg.

The molecule `O=C(O)[C@H]1CCCC[C@H]1C(=O)Nc1cccc(/C=C/c2nc(-c3ccccc3)cs2)c1` (relative stereo) [compound 248] returned an LD50 at 168 h of over 3000 mg/kg.

`CCCCCc1csc(/C=C/c2cccc(NC(=O)c3ccccc3C(=O)O)c2)n1` [compound 281] had a 50% lethal dose (LD50) at 168 h of over 3000 mg/kg.

`O=C(O)[C@H]1CC=CC[C@H]1C(=O)Nc1cccc(/C=C/c2nc(-c3ccccc3)cs2)c1` (relative stereo) [compound 249] had an LD50 at 168 h of 1000 to 2000 mg/kg.

`Cc1ccc2sc(/C=C/c3cccc(NC(=O)[C@@H]4CCCC[C@@H]4C(=O)O)c3)nc2c1` (relative stereo) [compound 232]: the LD50 at 168 h came out at 3000 mg/kg.

Molecule `O=C(O)/C=C\C(=O)Nc1cccc(/C=C/c2nc3ccccc3s2)c1` [compound 213, 2-[trans-3-(cis-3-carboxypropenamide)styryl]benzothiazole sodium salt] yielded an LD50 at 168 h of over 3000 mg/kg.

Molecule `CC(C)c1csc(/C=C/c2cccc(NC(=O)CCCC(=O)O)c2)n1` [compound 303] showed an LD50 at 168 h of 2000 mg/kg.

With `Cc1nc(/C=C/c2cccc(NC(=O)c3ccccc3C(=O)O)c2)sc1C` [compound 314], the LD50 at 168 h fell in the range of 2000 to 3000 mg/kg.

Consider `CCc1nc(/C=C/c2cccc(NC(=O)CCCC(=O)O)c2)sc1C` [compound 326], for which the 50% lethal dose (LD50) at 168 h was under 3000 mg/kg.

Take `CCc1nc(/C=C/c2cccc(NC(=O)CCC(=O)O)c2)sc1C` [compound 325]: the LD50 at 168 h stood at 2000 mg/kg.

As to `O=C(Nc1cccc(CCc2nc3ccccc3s2)c1)[C@H]1CCCC[C@H]1C(=O)O` (relative stereo) [compound 355], the LD50 at 168 h came out at 1930 mg/kg.

On to `CC(C)c1csc(/C=C/c2cccc(NC(=O)c3ccccc3C(=O)O)c2)n1` [compound 300], for which the LD50 at 168 h fell in the range of 1000 to 2000 mg/kg.

The molecule `CCc1nc(C=Cc2cccc(NCCCC(=O)O)c2)sc1C` [compound 382] returned an LD50 at 168 h of 1930 mg/kg.

As to `O=C(O)c1ccccc1C(=O)Nc1cccc(/C=C/c2nc(-c3ccccc3)cs2)c1` [compound 247], the LD50 at 168 h was over 3000 mg/kg.

`O=C(O)[C@H]1CCCC[C@H]1C(=O)Nc1cccc(/C=C/c2nc3ccccc3s2)c1` (relative stereo) [compound 216] registered an LD50 at 168 h of over 3000 mg/kg.

The molecule `O=C(O)[C@H]1CCCC[C@H]1C(=O)Nc1cccc(/C=C/c2nc3cc(Cl)ccc3s2)c1` (relative stereo) [compound 26] gave an LD50 at 168 h of over 3000 mg/kg.

For the molecule `O=C(O)c1ccccc1C(=O)Nc1cccc(/C=C/c2nc3ccccc3s2)c1` [compound 2], the LD50 at 168 h is over 3000 mg/kg.

Turning to `Cc1nc(/C=C/c2cccc(NC(=O)[C@H]3CC=CC[C@H]3C(=O)O)c2)sc1C` (relative stereo) [compound 317], the LD50 at 168 h amounted to 1030 mg/kg.

In turn, `Cc1nc(/C=C/c2cccc(NC(=O)/C=C\C(=O)O)c2)sc1C` [compound 313] gave a median lethal dose (LD50) at 168 h of 1560 mg/kg.

`CCc1nc(/C=C/c2cccc(NC(=O)[C@H]3CCCC[C@H]3C(=O)O)c2)sc1C` (relative stereo) [compound 324]: the LD50 at 168 h came to 1380 mg/kg.

The test system of another data set is LTD4. Briefly: LTD4 antagonistic action in vivo (airway resistance increase, Konzett-Roessler). The arrangement: species or system guinea pig. As to conditions: Cavia porcellus, read-out: Airway resistance increase inhibition.
`O=C([O-])CCCNc1cccc(/C=C/c2nc3ccccc3s2)c1.[Na+]` [sodium salt]: the inhibition in vivo at 3 mg/kg was 55%.

The data set is the same for the next values; noted with them: Cavia porcellus; intraduodenal, 3 mg/kg; LTD4 0.1-1.0 μg/kg i.v.; read-out: Airway resistance increase inhibition.
Take `O=C(CC1(C(=O)O)CCCCC1)Nc1cccc(/C=C/c2nc3ccccc3s2)c1` [compound 223]: the inhibition in vivo at 3 mg/kg turned out to be 87%.

For `CCCCC(CC(=O)Nc1cccc(/C=C/c2nc3ccccc3s2)c1)C(=O)O` (stereo not shown) [compound 227], the inhibition in vivo at 3 mg/kg was 71%.

Still in this data set, the particulars now being: Cavia porcellus; intraduodenal, 10 mg/kg; LTD4 0.1-1.0 μg/kg i.v.
Consider `CCCc1csc(/C=C/c2cccc(NC(=O)c3ccccc3C(=O)O)c2)n1` [compound 272], for which the inhibition in vivo at 10 mg/kg was 37%.

As for `CC(C)(C)c1csc(/C=C/c2cccc(NC(=O)CCC(=O)O)c2)n1` [compound 297], the inhibition in vivo at 10 mg/kg amounted to 62%.

The data set is the same for the next values; noted with them: Cavia porcellus; intraduodenal, 30 mg/kg; LTD4 0.1-1.0 μg/kg i.v.
`O=C(O)/C=C\C(=O)Nc1cccc(CCc2nc3ccccc3s2)c1` [compound 353] returned an inhibition in vivo at 30 mg/kg of 79%.

With `O=C(O)/C=C\C(=O)Nc1cccc(/C=C/c2nc3ccccc3s2)c1` [compound 213, 2-[trans-3-(cis-3-carboxypropenamide)styryl]benzothiazole sodium salt], the inhibition in vivo at 30 mg/kg is 51%.

Usually LD50 stands for the dose expected to kill half of the subjects tested. The low end stands for greater toxicity, the high end for lower toxicity.
